Like-named read-outs stand apart in the source and are kept apart here. Where a SMILES comes first, the peptide text is derived from it. The star is where a group is joined. Cbz = O=C(OCc1ccccc1)*; CH2F = FC* Where only a bound is given, the exact number is not on record here.

Consider 16 compounds from patent US20090196864A1 (priority 2005, published 2009).

In assay [1] the test system is S5 cells. It counts as cell-based, Trichoplusia ni.
Assay [2] deals with S5 cells. It counts as cell-based, Trichoplusia ni. This is another data set of the same source.
Assay [3] concerns S5 cells. The settings on record: Zhang et al. 2005, cited from earlier work; for Effect of chelator on toxin-induced death: S5 cells pre-treated with chelator, then Cry1Ab toxin.
The subject of assay [4] is S5 cells. The settings on record: Zhang et al. 2005, cited from earlier work; for Effect of osmotic protectant on blebbing and swelling of toxin-exposed cells: 30 mM protectant.
Assay [5] relates to H5 cells. The assay is classed as cell-based, Trichoplusia ni.
Assay [6] has as its system S5 cells. The settings on record: either stage of cytotoxicity; shown previously; cited from earlier work.
Assay [7] has as its system H5 cells. The settings on record: cultured H5 cells without receptor; Zhang et al. 2005; cited from earlier work.
The subject of assay [8] is S5 cells. It counts as cell-based, Trichoplusia ni. This is another data set of the same source.

As to `CO/C1=C\C(C)=C\[C@@H](C)[C@@H](O)[C@@H](C)C/C(C)=C/C=C/[C@H](OC)[C@@H]([C@@H](C)[C@@H](O)[C@H](C)[C@@]2(O)C[C@@H](O)[C@H](C)[C@@H](C(C)C)O2)OC1=O` [Bafilomycin A], the Cell death entry in the assay on S5 cells [1] is “+ (key: + = 80 ± 5% cell death; − = no cell death)”.
Still for that read-out and setting: under `C=C1[C@@H](C)[C@H]2[C@H](Cc3ccccc3)NC(=O)[C@]23[C@H](OC(C)=O)/C=C/[C@@](C)(O)C(=O)[C@@H](C)C/C=C/[C@H]3[C@@H]1O` [Cytochalasin D] stands “+ (key: + = 80 ± 5% cell death; − = no cell death)”.
For the compound `O=C(O)CN(CCN(CC(=O)O)CC(=O)O)CC(=O)O` [EDTA], in the assay on S5 cells [2], the “Effect on Cry1Ab-induced cAMP levels” value is recorded as “virtually precluded any increase in cAMP levels” and the “Effect on FSK induction of cAMP” value is listed as “precluded FSK induction of cAMP”. Further, the “Effect of chelator on toxin-induced death” value in the assay with S5 cells [3] is recorded as “completely abolished toxin-induced death”. In the assay with S5 cells [1], the Cell death result was “− (key: + = 80 ± 5% cell death; − = no cell death)”; the “Effect on Cry1Ab-induced toxicity and cell death” value is “prevented completely”.
For the compound `O=C(O)CN(CCOCCOCCN(CC(=O)O)CC(=O)O)CC(=O)O` [EGTA], the “Effect of chelator on toxin-induced death” value with S5 cells [3] is “fully susceptible”. Moreover, the Cell death entry in the assay on S5 cells [1] is “+ (key: + = 80 ± 5% cell death; − = no cell death)”.
Take `CC(C)Cn1c(=O)n(C)c(=O)c2[nH]cnc21` [IBMX]: the “Level of cAMP” value in the assay on S5 cells [2] is given as “did not cause any elevation”.
`O=C(Nc1cccc(C(=O)Nc2ccc(S(=O)(=O)O)c3cc(S(=O)(=O)O)cc(S(=O)(=O)O)c23)c1)Nc1cccc(C(=O)Nc2ccc(S(=O)(=O)O)c3cc(S(=O)(=O)O)cc(S(=O)(=O)O)c23)c1` [NF023]: the “Effect on Cry1Ab toxicity” value with S5 cells [1] was “did not have any effect”.
Regarding `O=C(Nc1cc(C(=O)Nc2ccc(S(=O)(=O)O)cc2S(=O)(=O)O)cc(C(=O)Nc2ccc(S(=O)(=O)O)cc2S(=O)(=O)O)c1)Nc1cc(C(=O)Nc2ccc(S(=O)(=O)O)cc2S(=O)(=O)O)cc(C(=O)Nc2ccc(S(=O)(=O)O)cc2S(=O)(=O)O)c1` [NF449], the “Decrease of relative toxicity (cell death) mediated by Cry1Ab” value in the assay on S5 cells [1] stood at 50%.
`COC(=O)Nc1nc2ccc(C(=O)c3cccs3)cc2[nH]1` [Nocodazole]: the Cell death result with S5 cells [1] (S5 cells treated with inhibitor, switched to inhibitor-free buffer before Cry1Ab toxin treatment, percent of dead cells by Trypan blue staining) is recorded as “+ (+ = 80 ± 5% cell death)”.
Consider `Cl.NCCc1ccc(S(=O)(=O)F)cc1` [Pefabloc], for which, in the assay with S5 cells [1], the Cell death result is reported as “+ (key: + = 80 ± 5% cell death; − = no cell death)”; the “Effect on Cry1Ab-induced toxicity and cell death” value is listed as “had no effect”.
With `OC[C@H]1O[C@@](CO)(O[C@H]2O[C@H](CO)[C@@H](O)[C@H](O)[C@H]2O)[C@@H](O)[C@@H]1O` [Sucrose, sucrose], the “Effect of osmotic protectant on blebbing and swelling of toxin-exposed cells” value in the assay with S5 cells [4] is “partially prevented cell swelling”.
As to `Cc1ccc(S(=O)(=O)N[C@@H](Cc2ccccc2)C(=O)CCl)cc1` [TPCK], in the assay with S5 cells [1], the Cell death entry is recorded as “+ (key: + = 80 ± 5% cell death; − = no cell death)”; the “Effect on Cry1Ab-induced toxicity and cell death” value is on record as “had no effect”.
The corresponding values for `COC(=O)C[C@H](NC(=O)[C@H](C)NC(=O)[C@@H](NC(=O)OCc1ccccc1)C(C)C)C(=O)CF` [Z-VAD-fmk] (Cbz-Val-Ala-Asp(OMe)-CH2F) are “+ (key: + = 80 ± 5% cell death; − = no cell death)” and “did not suppress”.
Consider `C[C@H]1O[C@@H](n2cnc3c(N)ncnc32)C[C@@H]1OP(=O)(O)OP(=O)(O)O` [ddADP, 2′,5′-dideoxy-3′-ADP], for which, in the assay with S5 cells [1], the “Reduction of number of cells undergoing cell death” value stood at 50%.
With `Nc1ncnc2c1nc(Sc1ccc(Cl)cc1)n2[C@@H]1O[C@@H]2COP(=O)(O)O[C@H]2[C@H]1O` [pCPT-cAMP], in the assay with S5 cells [1], the “Cell death with Cry1Ab after pre-treatment” value is on record as roughly 100% and the “Cell death without Cry1Ab treatment” value is listed as “Neither FSK nor pCPT-cAMP alone was sufficient to bring about cell death”.
In the case of `OC[C@H]1O[C@H](OC[C@H]2O[C@H](O[C@]3(CO)O[C@H](CO)[C@@H](O)[C@@H]3O)[C@H](O)[C@@H](O)[C@@H]2O)[C@H](O)[C@@H](O)[C@H]1O` [raffinose], the “Effect of osmotic protectant on blebbing and swelling of toxin-exposed cells” value in the assay with S5 cells [4] was “arrested in the blebbing stage and did not swell”. The “Fate of protectant-treated S5 cells after Cry1Ab exposure” value with S5 cells [3] (raffinose-treated cells) is listed as “eventually died”.
For the compound Cry1Ab toxin, the cAMP levels result in the assay on H5 cells [5] was “did not change”. The Internalization of toxin entry with S5 cells [6] is recorded as “not internalized”. In the assay on S5 cells [4] (S5 cells), the “Time to cell swelling and lysis” value is given as no more than 40 min; the “Time to membrane blebbing after toxin exposure” value is no more than 20 min. Besides, in the assay with S5 cells [2], the cAMP production entry is “increased in a time-dependent manner”. Also, the “Effect of toxin on cells” value in the assay with H5 cells [7] is on record as “not affected”. Also, the “Externalization of phosphatidylserine or DNA fragmentation” value with S5 cells [8] is “no externalization of phosphatidylserine or DNA fragmentation was observed”.
